Structures can show the parent of a compound that is named as a salt.
Assays:
H510A xenograft = experiment: In vivo tumor growth inhibition, NCI-H510A xenograft model; set-up: species or system athymic nude mice; conditions: 40 μg per kg five days on/two days off, after 21 days of dosing, compared to untreated controls
Method: 7-8-week old athymic nude mice animals were injected with 5×10^6 H510A cells resuspended in 100 μL of 1:1 mixture of Matrigel® matrix (Corning Inc., Tewksbury/MA, C. S. Hughes et al., Proteomics (2010) 10(9):1886-90) and PBS. Tumors were staged at 200-300 mm^3 animals and distributed into dosing groups. (trans)-N1-((1R,2S)-2-phenylcyclopropyl)cyclohexane-1,4-diamine was administered at a dose of 40 μg per kg (upk) five days on/two days off until end of study. Tumor volume was measure biweekly using a digital caliber. The study was concluded when mean tumor volume within control group reached 2000 mm^3 or 28 days post-staging. Statistical analysis was performed using unpaired t-test.

[1] = tested on: 19 small cell lung cancer cell lines; experiment: Cell response to LSD1 inhibition: compound potency determination in SCLC cell line panel; format: cell-based; conditions: 4 days culture
Method: The compound potency determination was performed by culturing 19 small cell lung cancer cell lines […] for 4 days at 37 degrees C. at 5% CO2 in humidified incubators in the presence of serially diluted (trans)-N1-((1R,2S)-2-phenylcyclopropyl)cyclohexane-1,4-diamine bis-hydrochloride.
As a positive control for cytotoxicity the Hsp90 inhibitor 17-N-allylamino-17-demethoxygeldanamycin (17-AAG, a geldanamycin analogue) was used as positive control in serial dilution. Each of the cell lines was propagated and tested in distinct optimized media as recommended by ATCC or cell line source.
Small cell lung cancer cell lines can be categorized as “classic” or “variant”, based on their enzymatic activities, cellular morphologies, and growth phenotypes (Desmond et al., Cancer Res (1985) 45(6):2913-2923; Shoemaker R. H., Nature Reviews Cancer […] 6:813-823). Classic cells lines express elevated levels of L-dopa decarboxylase, bombesin-like immunoreactivity, neuron-specific enolase, and the brain isozyme of creatine kinase; variant cell lines continue to express neuron-specific enolase and the brain isozyme of creatine kinase, but have undetectable levels of L-dopa decarboxylase and bombesin-like immunoreactivity. Unlike classic cell lines, some variant cell lines are amplified for and have increased expression of the c-myc (MYC)oncogene.
Depending on their responses to (trans)-N1-((1R,2S)-2-phenylcyclopropyl)cyclohexane-1,4-diamine bis-hydrochloride, cell lines are classified as either “sensitive” [5], defined as having EC50<0.05 μM, or “resistant”, defined as having EC50>=0.05 μM [R].

Compound | tumor growth inhibition (H510A xenograft) [%] | Cell-based response, classic versus variant SCLC cell lines ([1]; p-value 0.0055) | variant cell lines [V] that are resistant ([1]; resistant = EC50>=0.05 μM) | classic cell lines [C] that are sensitive ([1]; sensitive = EC50<0.05 μM)
N[C@H]1CC[C@H](N[C@@H]2C[C@H]2c2ccccc2)CC1 [(trans)-N1-((1R,2S)-2-phenylcyclopropyl)cyclohexane-1,4-diamine] | 34 | – | – | –
N[C@H]1CC[C@H](N[C@@H]2C[C@H]2c2ccccc2)CC1 [(trans)-N1-((1R,2S)-2-phenylcyclopropyl)cyclohexane-1,4-diamine bis-hydrochloride] | – | greater in classic SCLC cell lines compared to variant SCLC cell lines | 7 out of 8 | 9 out of 11
